Results published in article PMC9784969, “SARS-CoV-2 Inhibitors Identified by Phenotypic Analysis of a Collection of Viral RNA-Binding Molecules” (Pharmaceuticals, 2022).
Read-outs that look alike come from different tables or passages of the source.

Assays:
SARS-CoV-2 USA-WA1/2020 [1] = experiment: microbe, parasite or virus in culture; type: cell-based; conditions: Severe acute respiratory syndrome coronavirus 2, Vero C1008, 48 h, Vero E6 cells, MOI 0.025, two days; read-out: SARS-CoV-2 EC50
ATTL RNA = experiment: ligand-based 1H NMR (1D, CPMG, wLOGSY); type: binding, SARS-CoV-2
SARS-CoV-2 USA-WA1/2020 [2] = experiment: microbe, parasite or virus in culture; type: cell-based; conditions: Severe acute respiratory syndrome coronavirus 2, 48 h; 293T-ACE2 cells, MOI 0.25, two days; read-out: SARS-CoV-2 EC50
5_SL2+3 RNA = experiment: ligand-based 1H NMR (1D, CPMG, wLOGSY); type: binding, SARS-CoV-2
SCoV2 RNA elements = experiment: ligand-based 1H NMR (1D, CPMG, wLOGSY), six RNA elements compared; type: binding, SARS-CoV-2; conditions: CSP, LB, CPMG and wLOGSY perturbations; 300 µM compound
Source text: We first used ligand-based ^1H NMR experiments to analyze the interaction of the selected compounds with each of the six RNA elements specified above, including one-dimensional, Carr–Purcell–Meiboom–Gill (CPMG) and waterLOGSY (wLOGSY) experiments. These assays detect changes in the ^1H signals of the ligand upon RNA association (Figure 4A), and have been successfully used to evaluate small-molecule binding to RNA motifs, including elements of the SCoV2 genome.
Each ligand (at a concentration of 300 μM) was mixed with a smaller quantity of RNA in an aqueous solution containing 25 mM potassium phosphate (pH 6.2), 150 mM KCl, 3 mM MgCl2, and 10% D2O. RNA–ligand molar ratios of 1:50 and 1:100 were explored (with 6 and 3 μM RNA, respectively). […] The water signal was suppressed from one-dimensional experiments with a watergate sequence. The CPMG experiments were acquired with 100, 200, 300, and 400 ms relaxation delays before acquisition, and water suppression was achieved by presaturation. wLOGSY experiments employed a selective Gaussian 180° pulse at the water frequency and an NOE mixing time of 1.5 s and suppressed the water signal by excitation sculpting. All spectra were acquired in the absence and presence of RNA.
All ligand signals were individually analyzed. For clomiphene citrate, the signals corresponding to cis and trans forms were identified by comparing the spectrum of clomiphene citrate with those of the individual stereoisomers. In CPMG experiments, the binding of the compounds to the different RNA sequences was quantified as 100 minus the percentage of ligand signal area in the +RNA CPMG spectrum relative to the corresponding signal area in the -RNA CPMG spectrum. In wLOGSY experiments, binding was quantified with the LOGSY factor, or % of ligand signal in the difference spectrum between the +RNA and –RNA wLOGSY spectra, relative to the corresponding signal in the one-dimensional -RNA reference spectrum. In one-dimensional experiments, line broadening (LB) was quantified as explained for CPMG spectra.

PRF RNA = experiment: ligand-based 1H NMR (1D, CPMG, wLOGSY); type: binding, SARS-CoV-2
in vitro = conditions: human, uninfected 293T-ACE2 cells
3_SL1+2 RNA = type: binding
[3] = average of aliphatic protons, RNA:ligand 1:100 (clomiphene) or 1:50 (trim, qz2)
[4] = average of aromatic protons, RNA:ligand 1:100 (clomiphene) or 1:50 (trim, qz2)

CC(C)CCN1CCC(CNc2nc3ccccc3c(=O)[nH]2)CC1 [qz2]
EC50 (SARS-CoV-2 USA-WA1/2020 [1]): 7.52 µM | CPMG variation (ATTL RNA; [3]): 1.57% | LB (ATTL RNA; [3]): 4.09% | LOGSY factor (ATTL RNA; [3]): 4.38% | CPMG variation (ATTL RNA; [4]): 10.0% | LB (ATTL RNA; [4]): 3.39% | LOGSY factor (ATTL RNA; [4]): 9.98% | CPMG variation (ATTL RNA; qz2 peak A, RNA:ligand 1:50): 7.14% | LB (ATTL RNA; qz2 peak A, RNA:ligand 1:50): 6.48% | LOGSY factor (ATTL RNA; qz2 peak A, RNA:ligand 1:50): 2.39% | CPMG variation (ATTL RNA; qz2 peak C/D, RNA:ligand 1:50): 3.98% | LB (ATTL RNA; qz2 peak C/D, RNA:ligand 1:50): 2.52% | LOGSY factor (ATTL RNA; qz2 peak C/D, RNA:ligand 1:50): 6.82% | CPMG variation (ATTL RNA; qz2 peak E/B, RNA:ligand 1:50): -8.59% | LB (ATTL RNA; qz2 peak E/B, RNA:ligand 1:50): 7.56% | LOGSY factor (ATTL RNA; qz2 peak E/B, RNA:ligand 1:50): 2.78% | CPMG variation (ATTL RNA; qz2 peak F, RNA:ligand 1:50): 7.26% | LB (ATTL RNA; qz2 peak F, RNA:ligand 1:50): -1.84% | LOGSY factor (ATTL RNA; qz2 peak F, RNA:ligand 1:50): 3.39% | CPMG variation (ATTL RNA; qz2 peak G, RNA:ligand 1:50): 2.72% | LB (ATTL RNA; qz2 peak G, RNA:ligand 1:50): 8.16% | LOGSY factor (ATTL RNA; qz2 peak G, RNA:ligand 1:50): 6.53% | CPMG variation (ATTL RNA; qz2 peak I, RNA:ligand 1:50): 9.63% | LB (ATTL RNA; qz2 peak I, RNA:ligand 1:50): 3.05% | LOGSY factor (ATTL RNA; qz2 peak I, RNA:ligand 1:50): 10.3% | CPMG variation (ATTL RNA; qz2 peak J, RNA:ligand 1:50): 9.03% | LB (ATTL RNA; qz2 peak J, RNA:ligand 1:50): 12.1% | LOGSY factor (ATTL RNA; qz2 peak J, RNA:ligand 1:50): 5.22% | CPMG variation (ATTL RNA; qz2 peak K, RNA:ligand 1:50): 10.5% | LB (ATTL RNA; qz2 peak K, RNA:ligand 1:50): -5.00% | LOGSY factor (ATTL RNA; qz2 peak K, RNA:ligand 1:50): 14.4% | EC50 (SARS-CoV-2 USA-WA1/2020 [2]): 0.12 µM | CPMG variation (5_SL2+3 RNA; [3]): -3.85% | LB (5_SL2+3 RNA; [3]): -0.01% | LOGSY factor (5_SL2+3 RNA; [3]): 2.85% | CPMG variation (5_SL2+3 RNA; [4]): 4.67% | LB (5_SL2+3 RNA; [4]): 1.97% | LOGSY factor (5_SL2+3 RNA; [4]): 5.80% | CPMG variation (5_SL2+3 RNA; qz2 peak A, RNA:ligand 1:50): 3.62% | LB (5_SL2+3 RNA; qz2 peak A, RNA:ligand 1:50): 6.29% | LOGSY factor (5_SL2+3 RNA; qz2 peak A, RNA:ligand 1:50): 1.74% | CPMG variation (5_SL2+3 RNA; qz2 peak C/D, RNA:ligand 1:50): -2.36% | LB (5_SL2+3 RNA; qz2 peak C/D, RNA:ligand 1:50): -0.32% | LOGSY factor (5_SL2+3 RNA; qz2 peak C/D, RNA:ligand 1:50): 3.84% | CPMG variation (5_SL2+3 RNA; qz2 peak E/B, RNA:ligand 1:50): -11.8% | LB (5_SL2+3 RNA; qz2 peak E/B, RNA:ligand 1:50): 8.30% | LOGSY factor (5_SL2+3 RNA; qz2 peak E/B, RNA:ligand 1:50): 4.57% | CPMG variation (5_SL2+3 RNA; qz2 peak F, RNA:ligand 1:50): -1.52% | LB (5_SL2+3 RNA; qz2 peak F, RNA:ligand 1:50): -13.0% | LOGSY factor (5_SL2+3 RNA; qz2 peak F, RNA:ligand 1:50): 2.30% | CPMG variation (5_SL2+3 RNA; qz2 peak G, RNA:ligand 1:50): -3.33% | LB (5_SL2+3 RNA; qz2 peak G, RNA:ligand 1:50): 3.46% | LOGSY factor (5_SL2+3 RNA; qz2 peak G, RNA:ligand 1:50): 1.79% | CPMG variation (5_SL2+3 RNA; qz2 peak I, RNA:ligand 1:50): 4.89% | LB (5_SL2+3 RNA; qz2 peak I, RNA:ligand 1:50): 5.64% | LOGSY factor (5_SL2+3 RNA; qz2 peak I, RNA:ligand 1:50): 6.13% | CPMG variation (5_SL2+3 RNA; qz2 peak J, RNA:ligand 1:50): 5.88% | LB (5_SL2+3 RNA; qz2 peak J, RNA:ligand 1:50): -6.27% | LOGSY factor (5_SL2+3 RNA; qz2 peak J, RNA:ligand 1:50): 7.22% | CPMG variation (5_SL2+3 RNA; qz2 peak K, RNA:ligand 1:50): 3.01% | LB (5_SL2+3 RNA; qz2 peak K, RNA:ligand 1:50): 6.54% | LOGSY factor (5_SL2+3 RNA; qz2 peak K, RNA:ligand 1:50): 4.04% | RNA binding preference (SCoV2 RNA elements): bound to the ORF7b element only | CPMG variation (PRF RNA; [3]): -10.71% | LB (PRF RNA; [3]): -3.21% | LOGSY factor (PRF RNA; [3]): 3.74% | CPMG variation (PRF RNA; [4]): 13.0% | LB (PRF RNA; [4]): -0.27% | LOGSY factor (PRF RNA; [4]): 22.5% | CPMG variation (PRF RNA; qz2 peak A, RNA:ligand 1:50): -12.9% | LB (PRF RNA; qz2 peak A, RNA:ligand 1:50): -3.66% | LOGSY factor (PRF RNA; qz2 peak A, RNA:ligand 1:50): 3.10% | CPMG variation (PRF RNA; qz2 peak C/D, RNA:ligand 1:50): -17.7% | LB (PRF RNA; qz2 peak C/D, RNA:ligand 1:50): -8.83% | LOGSY factor (PRF RNA; qz2 peak C/D, RNA:ligand 1:50): 7.49% | CPMG variation (PRF RNA; qz2 peak E/B, RNA:ligand 1:50): -18.2% | LB (PRF RNA; qz2 peak E/B, RNA:ligand 1:50): 3.04% | LOGSY factor (PRF RNA; qz2 peak E/B, RNA:ligand 1:50): 2.11% | CPMG variation (PRF RNA; qz2 peak F, RNA:ligand 1:50): -0.60% | LB (PRF RNA; qz2 peak F, RNA:ligand 1:50): -8.91% | LOGSY factor (PRF RNA; qz2 peak F, RNA:ligand 1:50): 3.69% | CPMG variation (PRF RNA; qz2 peak G, RNA:ligand 1:50): -7.24% | LB (PRF RNA; qz2 peak G, RNA:ligand 1:50): 1.78% | LOGSY factor (PRF RNA; qz2 peak G, RNA:ligand 1:50): 2.32% | CPMG variation (PRF RNA; qz2 peak I, RNA:ligand 1:50): 13.2% | LB (PRF RNA; qz2 peak I, RNA:ligand 1:50): -0.20% | LOGSY factor (PRF RNA; qz2 peak I, RNA:ligand 1:50): 13.3% | CPMG variation (PRF RNA; qz2 peak J, RNA:ligand 1:50): 11.4% | LB (PRF RNA; qz2 peak J, RNA:ligand 1:50): -1.72% | LOGSY factor (PRF RNA; qz2 peak J, RNA:ligand 1:50): 42.7% | CPMG variation (PRF RNA; qz2 peak K, RNA:ligand 1:50): 14.6% | LB (PRF RNA; qz2 peak K, RNA:ligand 1:50): 1.11% | LOGSY factor (PRF RNA; qz2 peak K, RNA:ligand 1:50): 11.4% | CC50 at 2 days (in vitro): > 6.6 µM | LB (3_SL1+2 RNA; [3]): -2.14% | LOGSY factor (3_SL1+2 RNA; [3]): 4.45% | CPMG variation (3_SL1+2 RNA; [4]): 10.7% | LB (3_SL1+2 RNA; [4]): 13.1% | LOGSY factor (3_SL1+2 RNA; [4]): 11.5% | CPMG variation (3_SL1+2 RNA; qz2 peak A, RNA:ligand 1:50): -13.7% | LB (3_SL1+2 RNA; qz2 peak A, RNA:ligand 1:50): -2.06% | LOGSY factor (3_SL1+2 RNA; qz2 peak A, RNA:ligand 1:50): 2.25% | CPMG variation (3_SL1+2 RNA; qz2 peak C/D, RNA:ligand 1:50): -16.2% | LB (3_SL1+2 RNA; qz2 peak C/D, RNA:ligand 1:50): -4.34% | LOGSY factor (3_SL1+2 RNA; qz2 peak C/D, RNA:ligand 1:50): 7.61% | CPMG variation (3_SL1+2 RNA; qz2 peak E/B, RNA:ligand 1:50): -19.5% | LB (3_SL1+2 RNA; qz2 peak E/B, RNA:ligand 1:50): 7.16% | LOGSY factor (3_SL1+2 RNA; qz2 peak E/B, RNA:ligand 1:50): 3.76% | CPMG variation (3_SL1+2 RNA; qz2 peak F, RNA:ligand 1:50): -4.16% | LB (3_SL1+2 RNA; qz2 peak F, RNA:ligand 1:50): -9.61% | LOGSY factor (3_SL1+2 RNA; qz2 peak F, RNA:ligand 1:50): 3.95% | CPMG variation (3_SL1+2 RNA; qz2 peak G, RNA:ligand 1:50): -11.4% | LB (3_SL1+2 RNA; qz2 peak G, RNA:ligand 1:50): -3.71% | LOGSY factor (3_SL1+2 RNA; qz2 peak G, RNA:ligand 1:50): 4.70% | CPMG variation (3_SL1+2 RNA; qz2 peak I, RNA:ligand 1:50): 11.7% | LB (3_SL1+2 RNA; qz2 peak I, RNA:ligand 1:50): 11.8% | LOGSY factor (3_SL1+2 RNA; qz2 peak I, RNA:ligand 1:50): 15.1% | CPMG variation (3_SL1+2 RNA; qz2 peak J, RNA:ligand 1:50): 11.1% | LB (3_SL1+2 RNA; qz2 peak J, RNA:ligand 1:50): 21.8% | LOGSY factor (3_SL1+2 RNA; qz2 peak J, RNA:ligand 1:50): 16.0% | CPMG variation (3_SL1+2 RNA; qz2 peak K, RNA:ligand 1:50): 8.91% | LB (3_SL1+2 RNA; qz2 peak K, RNA:ligand 1:50): 5.71% | LOGSY factor (3_SL1+2 RNA; qz2 peak K, RNA:ligand 1:50): 3.38%
